These compounds were tested against T1, full-length human His-tagged BTK (Homo sapiens, UniProt Q06187) (assay: BTK HTRF assay (Cisbio KinEASE-TK)). Conditions: 6 nM BTK, 15 min preincubation at 28° C., 1 uM TK substrate-biotin, 30 uM ATP.
T1 construct: 6 nM of full-length human His-tagged BTK (Life Technologies cat #PV3587); His; purchased Life Technologies PV3587
T1 sequence (Q06187 whole entry): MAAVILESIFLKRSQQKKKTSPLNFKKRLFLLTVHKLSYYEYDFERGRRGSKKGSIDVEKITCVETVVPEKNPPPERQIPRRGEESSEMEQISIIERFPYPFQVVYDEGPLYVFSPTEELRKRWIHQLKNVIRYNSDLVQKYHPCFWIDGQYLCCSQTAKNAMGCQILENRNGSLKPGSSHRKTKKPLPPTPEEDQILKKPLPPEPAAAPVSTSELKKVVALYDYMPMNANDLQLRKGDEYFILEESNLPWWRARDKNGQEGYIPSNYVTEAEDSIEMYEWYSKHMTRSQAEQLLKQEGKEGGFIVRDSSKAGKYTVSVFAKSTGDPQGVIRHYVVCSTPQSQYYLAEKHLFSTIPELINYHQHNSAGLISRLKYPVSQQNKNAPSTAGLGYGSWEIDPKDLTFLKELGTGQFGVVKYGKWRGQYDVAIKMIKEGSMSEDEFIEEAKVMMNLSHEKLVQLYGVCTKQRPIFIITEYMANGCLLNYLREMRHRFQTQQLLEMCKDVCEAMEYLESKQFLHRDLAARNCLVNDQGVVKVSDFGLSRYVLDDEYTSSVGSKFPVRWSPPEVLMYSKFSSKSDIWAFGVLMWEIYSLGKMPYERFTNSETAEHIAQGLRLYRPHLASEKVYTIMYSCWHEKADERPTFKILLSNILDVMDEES
Assay type: biochemical
Experimental: An HTRF assay (Cisbio KinEASE-TK cat #62TK0PEC) was performed to quantitate the ability of test compounds to inhibit BTK mediated phosphorylation of substrate. Assays were assembled in 384 well plates where 6 nM of full-length human His-tagged BTK (Life Technologies cat #PV3587) and test compound at varying concentrations were preincubated for 15 minutes at 28° C. Then, 1 uM of TK substrate-biotin and 30 uM ATP were added and incubated for an additional 30 minutes at 28° C. Phospohrylation was detected by adding 62.5 nM Streptavidin-XL665 and TK-Antibody Cryptate diluted 1:100 in HTRF detection buffer (Cisbio cat #62SDBRDF) and incubated for 60 minutes at RT. The plate was read on an Envision plate reader and the fluoresence is measured at 620 nm (cryptate) and 665 nm (XL665). A ratio is calculated (665/620) and converted to POC relative to control and blank wells.
50 mM HEPES (Invitrogen #15630), 0.01% Brij-35 (sigma #B4184), 10 mM MgC12 (Sigma M1028), 1 mM EGTA (Ambion AM9262) and 100 uM sodium orthovanedate (Sigma S6508), 1 mM DTT (Sigma D5545) and 10 nM supplement enzyme buffer (Cisbio cat#61SEBALB).
With `C=CC(=O)N1CCC2(C1)CN(c1nc(-c3ccc(Oc4ccccc4)cc3)c(C(N)=O)s1)C2` [Example 1] the IC50 was 8.5 nM. Work on `C=CC(=O)N(C)C1CCN(c2nc(-c3ccc(Oc4ccccc4)cc3)c(C(N)=O)s2)CC1` [Example 2] yielded an IC50 of 4.8 nM. `CC#CC(=O)N(C)C1CCN(c2nc(-c3ccc(Oc4ccccc4)cc3)c(C(N)=O)s2)CC1` [Example 3] gave an IC50 of 2.6 nM. Compound `CC#CC(=O)N[C@@H]1CCCN(c2nc(-c3ccc(Oc4ccccc4)cc3)c(C(N)=O)s2)C1` [Example 4] has an IC50 of 95 nM. With `C=CC(=O)N[C@@H]1CCCN(c2nc(-c3ccc(Oc4ccccc4)cc3)c(C(N)=O)s2)C1` [Example 5] the IC50 was 13 nM. With `C=CC(=O)N1CCN(c2nc(-c3ccc(Oc4ccccc4)cc3)c(C(N)=O)s2)CC1` [Example 6] the IC50 was 0.3 nM. For `CC#CC(=O)N1CCN(c2nc(-c3ccc(Oc4ccccc4)cc3)c(C(N)=O)s2)CC1` [Example 7], the IC50 was 0.67 nM. Work on `C=CC(=O)N1CC2(CCN(c3nc(-c4ccc(Oc5ccccc5)cc4)c(C(N)=O)s3)C2)C1` [Example 8] yielded an IC50 of 5.6 nM. `CC#CC(=O)N1CC2(CCN(c3nc(-c4ccc(Oc5ccccc5)cc4)c(C(N)=O)s3)C2)C1` [Example 9] was tested, and the IC50 was 4.3 nM. For `CN(C)C/C=C/C(=O)N1CC2(CCN(c3nc(-c4ccc(Oc5ccccc5)cc4)c(C(N)=O)s3)C2)C1` [Example 10], the IC50 was 110 nM. In the case of `CC#CC(=O)N1CC2(C1)CN(c1nc(-c3ccc(Oc4ccccc4)cc3)c(C(N)=O)s1)C2` [Example 11], the IC50 is reported as 8.8 nM. With `C=CC(=O)N1CC2(C1)CN(c1nc(-c3ccc(Oc4ccccc4)cc3)c(C(N)=O)s1)C2` [Example 12] the IC50 was 4.1 nM. `CN(C)C/C=C/C(=O)N1CC2(C1)CN(c1nc(-c3ccc(Oc4ccccc4)cc3)c(C(N)=O)s1)C2` [Example 13] showed an IC50 of 510 nM. With `C/C=C/C(=O)N1CC2(C1)CN(c1nc(-c3ccc(Oc4ccccc4)cc3)c(C(N)=O)s1)C2` [Example 14] the IC50 was > 1000 nM. For `NC(=O)c1sc(N2CC3(CN(C(=O)/C=C/CN4CCOCC4)C3)C2)nc1-c1ccc(Oc2ccccc2)cc1` [Example 15], the IC50 was > 1000 nM. In the case of `CC#CC(=O)N1C[C@@H]2C[C@H]1CN2c1nc(-c2ccc(Oc3ccccc3)cc2)c(C(N)=O)s1` [Example 16], the IC50 is reported as 1.2 nM. `C=CC(=O)N1CCN(c2nc(-c3ccc(Oc4ccccc4)cc3)c(C(N)=O)s2)[C@@H](C)C1` [Example 17] gave an IC50 of 0.87 nM. `CC#CC(=O)N1[C@@H]2CC[C@H]1CN(c1nc(-c3ccc(Oc4ccccc4)cc3)c(C(N)=O)s1)C2` [Example 18] gave an IC50 of 0.62 nM. For `C=CC(=O)N1[C@@H]2CC[C@H]1CN(c1nc(-c3ccc(Oc4ccccc4)cc3)c(C(N)=O)s1)C2` [Example 19], the IC50 was 0.48 nM. `C[C@H](Cl)C(=O)N1CC2(C1)CN(c1nc(-c3ccc(Oc4ccccc4)cc3)c(C(N)=O)s1)C2` [Example 20] was tested, and the IC50 was 350 nM. `CC#CC(=O)N1CCN(c2nc(-c3ccc(Oc4ccccc4)cc3)c(C(N)=O)s2)[C@@H](C)C1` [Example 21] was tested, and the IC50 was 1.2 nM. Compound `CN(C)C/C=C/C(=O)N1CCN(c2nc(-c3ccc(Oc4ccccc4)cc3)c(C(N)=O)s2)CC1` [Example 22] has an IC50 of 2 nM. Work on `C=CC(=O)N1CCCC12CCN(c1nc(-c3ccc(Oc4ccccc4)cc3)c(C(N)=O)s1)CC2` [Example 23] yielded an IC50 of 43 nM. `CC#CC(=O)N1CCCC12CCN(c1nc(-c3ccc(Oc4ccccc4)cc3)c(C(N)=O)s1)CC2` [Example 24] was tested, and the IC50 was 150 nM. Work on `CC#CC(=O)N1CCN(c2nc(-c3ccc(Oc4ccccc4)cc3)c(C(N)=O)s2)CC1C` (stereo not shown) [Example 25] yielded an IC50 of 1 nM. For `CN(C)CCC(=O)N1CCN(c2nc(-c3ccc(Oc4ccccc4)cc3)c(C(N)=O)s2)CC1` [Example 26], the IC50 was 69 nM. In the case of `C=CC(=O)N1CCN(c2nc(-c3cnn(Cc4ccccc4)c3)c(C(N)=O)s2)CC1` [Example 27], the IC50 is reported as 710 nM. For `CC#CC(=O)N1CCN(c2nc(-c3cnn(Cc4ccccc4)c3)c(C(N)=O)s2)CC1` [Example 28], the IC50 was > 1000 nM. `C=CC(=O)N1CCN(c2nc(-c3ccc(Br)cc3)c(C(N)=O)s2)CC1` [Example 29] was tested, and the IC50 was 6.6 nM. `CC#CC(=O)N1CCN(c2nc(-c3ccc(Br)cc3)c(C(N)=O)s2)CC1` [Example 30] showed an IC50 of 73 nM. For `CCC(=O)N1CC2(C1)CN(c1nc(-c3ccc(Oc4ccccc4)cc3)c(C(N)=O)s1)C2` [Example 31], the IC50 was > 1000 nM. Compound `C=CC(=O)N1CCN(c2nc(-c3ccc(Oc4ccccc4)nc3)c(C(N)=O)s2)CC1` [Example 32] has an IC50 of 17 nM. Work on `CC#CC(=O)N1CCN(c2nc(-c3ccc(Oc4ccccc4)nc3)c(C(N)=O)s2)CC1` [Example 33] yielded an IC50 of 180 nM. `C/C=C/C(=O)N1CCN(c2nc(-c3ccc(Oc4ccccc4)nc3)c(C(N)=O)s2)CC1` [Example 34] was tested, and the IC50 was 700 nM. `C=CC(=O)NC[C@@H]1CCCN1c1nc(-c2ccc(Oc3ccccc3)cc2)c(C(N)=O)s1` [Example 35] showed an IC50 of 11 nM. With `CC#CC(=O)NC[C@@H]1CCCN1c1nc(-c2ccc(Oc3ccccc3)cc2)c(C(N)=O)s1` [Example 36] the IC50 was 14 nM. `CC(C)(O)C#CC(=O)N1CCN(c2nc(-c3ccc(Oc4ccccc4)cc3)c(C(N)=O)s2)CC1` [Example 37] gave an IC50 of 0.65 nM. In the case of `CC#CC(=O)N1CCN(c2nc(-c3ccc(S(C)(=O)=O)cc3)c(C(N)=O)s2)CC1` [Example 38], the IC50 is reported as > 1000 nM. Work on `NC(=O)c1sc(N2CCN(C(=O)C#CCO)CC2)nc1-c1ccc(Oc2ccccc2)cc1` [Example 39] yielded an IC50 of 0.69 nM. `C=CC(=O)NC[C@H]1CCCN1c1nc(-c2ccc(Oc3ccccc3)cc2)c(C(N)=O)s1` [Example 40] gave an IC50 of 120 nM. Compound `CC#CC(=O)NC[C@H]1CCCN1c1nc(-c2ccc(Oc3ccccc3)cc2)c(C(N)=O)s1` [Example 41] has an IC50 of 30 nM. In the case of `NC(=O)c1sc(N2CCN(C(=O)C#CCN3CCOCC3)CC2)nc1-c1ccc(Oc2ccccc2)cc1` [Example 42], the IC50 is reported as 0.7 nM. Work on `CN(C)C/C=C/C(=O)NC[C@@H]1CCCN1c1nc(-c2ccc(Oc3ccccc3)cc2)c(C(N)=O)s1` [Example 43] yielded an IC50 of 52 nM. `CN(C)C/C=C/C(=O)NC[C@H]1CCCN1c1nc(-c2ccc(Oc3ccccc3)cc2)c(C(N)=O)s1` [Example 44] showed an IC50 of 560 nM. For `CC#CC(=O)N1CCN(c2nc(-c3ccc(Oc4ccccc4)cn3)c(C(N)=O)s2)CC1` [Example 45], the IC50 was 40 nM. In the case of `CC#CC(=O)N1CCN(c2nc(-c3cccc(C(=O)Nc4ccccc4)c3)c(C(N)=O)s2)CC1` [Example 46], the IC50 is reported as > 1000 nM.

Source: US8895750B2, “Heteroaromatic compounds as BTK inhibitors” (Boehringer Ingelheim International GmbH, priority 2013, dated 2014)
